In patent US20230399342A1 (Incyte Corporation, priority 2022, published 2023):

Columns and labels:
DGKα = DGKα (Homo sapiens (Human), UniProt P23743); assay: In vitro DGKα inhibition assay (ADP-Glo); type: biochemical; conditions: His-tagged human recombinant enzyme, 0.1 nM DGKα, 50 μM ATP, 20 μM DLG, 90 minute incubation
Summary of the method: (§1)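 His-tagged human DGKα (0.1 nM, 50 μM ATP) or DGKζ (0.4 nM, 30 μM ATP), each with 20 μM DLG, in Tris pH 7.5 buffer with CHAPS, Mg2+, Ca2+.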

DGKζ = DGKζ (Homo sapiens (Human), UniProt Q13574); assay: In vitro DGKζ inhibition assay (ADP-Glo); type: biochemical; conditions: His-tagged human recombinant enzyme, 0.4 nM DGK, 30 μM ATP, 20 μM DLG, 90 minute incubation
Chain of DGKζ (Q13574 whole entry): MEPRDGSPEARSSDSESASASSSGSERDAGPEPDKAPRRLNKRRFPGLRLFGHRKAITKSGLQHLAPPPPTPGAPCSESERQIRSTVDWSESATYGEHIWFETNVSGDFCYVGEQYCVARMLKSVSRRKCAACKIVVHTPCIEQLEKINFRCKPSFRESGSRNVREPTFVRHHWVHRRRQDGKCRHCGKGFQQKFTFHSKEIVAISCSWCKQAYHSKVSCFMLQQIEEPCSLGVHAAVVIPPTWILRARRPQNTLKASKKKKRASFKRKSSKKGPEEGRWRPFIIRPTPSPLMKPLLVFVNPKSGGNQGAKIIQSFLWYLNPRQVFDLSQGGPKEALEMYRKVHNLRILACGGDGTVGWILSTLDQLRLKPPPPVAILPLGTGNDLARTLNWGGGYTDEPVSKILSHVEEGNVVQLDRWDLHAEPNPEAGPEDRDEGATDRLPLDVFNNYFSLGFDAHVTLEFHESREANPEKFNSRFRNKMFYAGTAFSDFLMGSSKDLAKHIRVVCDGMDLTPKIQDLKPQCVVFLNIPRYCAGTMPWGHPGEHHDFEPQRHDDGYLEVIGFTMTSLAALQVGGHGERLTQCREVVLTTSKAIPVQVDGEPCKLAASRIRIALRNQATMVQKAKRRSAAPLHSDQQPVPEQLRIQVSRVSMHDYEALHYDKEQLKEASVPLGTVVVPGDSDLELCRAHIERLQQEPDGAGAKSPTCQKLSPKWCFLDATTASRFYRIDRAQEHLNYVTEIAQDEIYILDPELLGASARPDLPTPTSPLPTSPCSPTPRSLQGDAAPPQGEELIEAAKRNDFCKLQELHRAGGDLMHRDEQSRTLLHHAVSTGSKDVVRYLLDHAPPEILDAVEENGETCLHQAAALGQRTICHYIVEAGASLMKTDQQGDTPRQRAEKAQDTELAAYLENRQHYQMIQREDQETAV
Summary of the method: as §1

Chain of DGKα (P23743 whole entry): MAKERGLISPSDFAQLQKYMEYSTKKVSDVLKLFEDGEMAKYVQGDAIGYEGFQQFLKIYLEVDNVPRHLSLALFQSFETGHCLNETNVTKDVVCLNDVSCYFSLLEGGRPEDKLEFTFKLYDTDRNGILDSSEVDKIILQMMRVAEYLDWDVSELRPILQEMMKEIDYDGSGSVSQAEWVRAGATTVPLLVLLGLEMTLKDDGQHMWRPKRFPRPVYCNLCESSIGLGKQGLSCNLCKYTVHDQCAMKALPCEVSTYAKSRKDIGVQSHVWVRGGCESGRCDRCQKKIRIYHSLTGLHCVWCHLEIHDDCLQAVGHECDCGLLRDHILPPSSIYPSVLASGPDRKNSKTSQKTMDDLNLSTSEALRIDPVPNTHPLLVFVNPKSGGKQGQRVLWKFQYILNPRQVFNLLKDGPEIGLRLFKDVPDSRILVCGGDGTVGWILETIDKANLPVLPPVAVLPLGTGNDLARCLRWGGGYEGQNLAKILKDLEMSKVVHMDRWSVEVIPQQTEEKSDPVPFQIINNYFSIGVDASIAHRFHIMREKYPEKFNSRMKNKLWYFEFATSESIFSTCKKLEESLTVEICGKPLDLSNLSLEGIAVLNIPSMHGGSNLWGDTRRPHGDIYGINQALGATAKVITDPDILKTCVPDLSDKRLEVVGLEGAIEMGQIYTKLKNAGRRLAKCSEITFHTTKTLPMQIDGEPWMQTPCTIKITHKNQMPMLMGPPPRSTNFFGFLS

Work on `COc1ccc([C@H](c2ccc(C(F)F)cc2)N2C[C@H](C)N(c3nc4nncn4c4c3nc(C)n4C[C@@H]3CCCO3)C[C@H]2C)cc1` [Example 92, 4-((2S,5R)-4-((4-(Difluoromethyl)phenyl)(4-methoxyphenyl)methyl)-2,5-dimethylpiperazin-1-yl)-2-methyl-1-(((S)-tetrahydrofuran-2-yl)methyl)-1H-[1,2,4]triazolo[3,4-b]purine] yielded an IC50 (DGKα) of at most 0.02 µM and an IC50 (DGKζ) of at most 0.02 µM.
Work on `Cc1nc2c(N3C[C@@H](C)N(C(c4ccc(C(F)(F)F)cc4)c4ccc(C(F)(F)F)cc4)C[C@@H]3C)nc3nncn3c2n1C[C@@H]1CCCO1` [Example 134, 4-((2S,5R)-4-(Bis(4-(trifluoromethyl)phenyl)methyl)-2,5-dimethylpiperazin-1-yl)-2-methyl-1-(((S)-tetrahydrofuran-2-yl)methyl)-1H-[1,2,4]triazolo[3,4-b]purine] yielded an IC50 (DGKα) of at most 0.02 µM and an IC50 (DGKζ) of at most 0.02 µM.
Work on `CC[C@@H]1CN(c2nc3nncn3c3c2nc(C)n3C[C@@H]2CCCO2)[C@@H](C)CN1C(c1ccc(F)cc1)c1ccc(C#N)cc1` (stereo partly drawn) [Example 132, 4-(((2R,5S)-2-Ethyl-5-methyl-4-(2-methyl-1-(((S)-tetrahydrofuran-2-yl)methyl)-1H-[1,2,4]triazolo[3,4-b]purin-4-yl)piperazin-1-yl)(4-fluorophenyl)methyl)benzonitrile] yielded an IC50 (DGKα) of at most 0.02 µM and an IC50 (DGKζ) of at most 0.02 µM.
For `CC[C@@H]1CN(c2nc3nncn3c3c2nc(C)n3C[C@@H]2CCCO2)[C@@H](C)CN1[C@H](c1ccc(OC(F)F)cc1)C(C)C` [Example 126, 4-((2S,5R)-4-((S)-1-(4-(Difluoromethoxy)phenyl)-2-methylpropyl)-5-ethyl-2-methylpiperazin-1-yl)-2-methyl-1-(((S)-tetrahydrofuran-2-yl)methyl)-1H-[1,2,4]triazolo[3,4-b]purine], the IC50 (DGKα) was at most 0.02 µM and the IC50 (DGKζ) was at most 0.02 µM.
For `C[C@H]1CN(C(c2ccc(F)cc2)c2ccc(F)cc2)[C@H](CC#N)CN1c1nc2nnc(C3CC3)n2c2scnc12` [Example 15, 2-((2R,5S)-1-(Bis(4-fluorophenyl)methyl)-4-(8-cyclopropylthiazolo[4,5-e][1,2,4]triazolo[4,3-a]pyrimidin-4-yl)-5-methylpiperazin-2-yl)acetonitrile], the IC50 (DGKα) was 0.02 to 0.2 µM and the IC50 (DGKζ) was at most 0.02 µM.
Molecule `CC(C)[C@@H](c1ccc(Cl)cc1)N1C[C@H](C)N(c2nc3nncn3c3c2ncn3CCN(C)C)C[C@H]1C` [Example 90, 2-(4-((2S,5R)-4-((S)-1-(4-Chlorophenyl)-2-methylpropyl)-2,5-dimethylpiperazin-1-yl)-1H-[1,2,4]triazolo[3,4-b]purin-1-yl)-N,N-dimethylethan-1-amine] has an IC50 (DGKα) of at most 0.02 µM and an IC50 (DGKζ) of at most 0.02 µM.
`C[C@@H]1CN(c2nc3nncn3c3sc(CCC#N)nc23)[C@@H](C)CN1C(c1ccc(F)cc1)c1ccc(F)cc1` [Example 4, 3-(4-((2S,5R)-4-(Bis(4-fluorophenyl)methyl)-2,5-dimethylpiperazin-1-yl)thiazolo[4,5-e][1,2,4]triazolo[4,3-a]pyrimidin-2-yl)propanenitrile] was tested, and the IC50 (DGKα) was at most 0.02 µM and the IC50 (DGKζ) was 0.2 to 2 µM.
Molecule `Cc1nc2c(N3C[C@@H]([C@H](C)O)N(C(c4ccc(F)cc4)c4ccc(F)cc4)C[C@@H]3C)nc3nncn3c2n1C[C@@H]1CCCO1` [Example 124, (S)-1-((2S,5S)-1-(bis(4-fluorophenyl)methyl)-5-methyl-4-(2-methyl-1-(((S)-tetrahydrofuran-2-yl)methyl)-1H-[1,2,4]triazolo[3,4-b]purin-4-yl)piperazin-2-yl)ethan-1-ol] has an IC50 (DGKα) of at most 0.02 µM and an IC50 (DGKζ) of at most 0.02 µM.
`C[C@@H]1CN(c2nc3nncn3c3c2ncn3CCN(C)C)[C@@H](C)CN1C(c1ccc(C(F)F)cc1)c1ccc(C(F)F)cc1` [Example 100, 2-(4-((2S,5R)-4-(Bis(4-(difluoromethyl)phenyl)methyl)-2,5-dimethylpiperazin-1-yl)-1H-[1,2,4]triazolo[3,4-b]purin-1-yl)-N,N-dimethylethan-1-amine] gave an IC50 (DGKα) of at most 0.02 µM and an IC50 (DGKζ) of at most 0.02 µM.
Molecule `Cc1nc2c(N3C[C@@H](C)N(C(c4ccc(F)c(Br)c4)C4CC(F)(F)C4)C[C@@H]3C)nc3nncn3c2n1C[C@@H]1CCCO1` (stereo partly drawn) [Example 62, 4-((2S,5R)-4-((3-Bromo-4-fluorophenyl)(3,3-difluorocyclobutyl)methyl)-2,5-dimethylpiperazin-1-yl)-2-methyl-1-(((S)-tetrahydrofuran-2-yl)methyl)-1H-[1,2,4]triazolo[3,4-b]purine] has an IC50 (DGKα) of at most 0.02 µM and an IC50 (DGKζ) of at most 0.02 µM.
Work on `Cc1nc2c(N3C[C@@H](C)N([C@H](c4ccc(C(F)F)cc4)C(C)C)C[C@@H]3C)nc3nncn3c2n1C[C@@H]1CCCO1` [Example 73, 4-((2S,5R)-4-((S)-1-(4-(Difluoromethyl)phenyl)-2-methylpropyl)-2,5-dimethylpiperazin-1-yl)-2-methyl-1-(((S)-tetrahydrofuran-2-yl)methyl)-1H-[1,2,4]triazolo[3,4-b]purine] yielded an IC50 (DGKα) of at most 0.02 µM and an IC50 (DGKζ) of at most 0.02 µM.
Molecule `Cc1nc2c(N3C[C@@H](C)N(C(c4ccc(C(F)(F)F)c(F)c4)C(C)C)C[C@@H]3C)nc3nncn3c2n1C[C@@H]1CCCO1` (stereo partly drawn) [Example 83, 4-((2S,5R)-4-(1-(3-Fluoro-4-(trifluoromethyl)phenyl)-2-methylpropyl)-2,5-dimethylpiperazin-1-yl)-2-methyl-1-(((S)-tetrahydrofuran-2-yl)methyl)-1H-[1,2,4]triazolo[3,4-b]purine] has an IC50 (DGKα) of at most 0.02 µM and an IC50 (DGKζ) of at most 0.02 µM.
With `Cc1nc2c(N3C[C@@H](C)N(C(c4ccc(C(F)(F)F)cc4)C4CC(F)(F)C4)C[C@@H]3C)nc3nncn3c2n1C[C@@H]1CCCO1` (single isomer, unassigned) [Example 43] the IC50 (DGKα) was at most 0.02 µM and the IC50 (DGKζ) was at most 0.02 µM.
`Cc1nc2c(N3C[C@@H](C)N(C(c4ccc(Cl)cc4)c4ccc(Cl)cc4)C[C@@H]3C)nc3nncn3c2n1C[C@@H]1CCCO1` [Example 105, 4-((2S,5R)-4-(Bis(4-chlorophenyl)methyl)-2,5-dimethylpiperazin-1-yl)-2-methyl-1-(((S)-tetrahydrofuran-2-yl)methyl)-1H-[1,2,4]triazolo[3,4-b]purine] showed an IC50 (DGKα) of at most 0.02 µM and an IC50 (DGKζ) of at most 0.02 µM.
Molecule `CC[C@@H]1CN(c2nc3nncn3c3c2ncn3CCN(C)C)[C@@H](C)CN1C(c1ccc(Cl)cc1)C1CC(F)(F)C1` (stereo partly drawn) [Example 66, 2-(4-((2S,5R)-4-((4-Chlorophenyl)(3,3-difluorocyclobutyl)methyl)-5-ethyl-2-methylpiperazin-1-yl)-1H-[1,2,4]triazolo[3,4-b]purin-1-yl)-N,N-dimethylethan-1-amine] has an IC50 (DGKα) of at most 0.02 µM and an IC50 (DGKζ) of at most 0.02 µM.
`Cc1nc2c(N3C[C@@H](C)N([C@@H](c4cccc(F)c4)C(C)C)C[C@@H]3C)nc3nncn3c2n1C[C@@H]1CCCO1` [Example 95, 4-((2S,5R)-4-((R)-1-(3-fluorophenyl)-2-methylpropyl)-2,5-dimethylpiperazin-1-yl)-2-methyl-1-(((S)-tetrahydrofuran-2-yl)methyl)-1H-[1,2,4]triazolo[3,4-b]purine] was tested, and the IC50 (DGKα) was at most 0.02 µM and the IC50 (DGKζ) was at most 0.02 µM.
`C[C@@H]1CN(c2nc3nncn3c3c2ncn3C[C@@H]2CCCO2)[C@@H](C)CN1[C@H](c1ccc(F)cc1)c1ccc(OC(F)(F)F)cn1` [Example 27, 4-((2S,5R)-4-((R)-(4-fluorophenyl)(5-(trifluoromethoxy)pyridin-2-yl)methyl)-2,5-dimethylpiperazin-1-yl)-1-(((S)-tetrahydrofuran-2-yl)methyl)-1H-[1,2,4]triazolo[3,4-b]purine] gave an IC50 (DGKα) of at most 0.02 µM and an IC50 (DGKζ) of at most 0.02 µM.
With `Cc1nc2c(N3C[C@@H](C)N(C(c4cc(F)c(C(F)(F)F)cc4F)C4CC(F)(F)C4)C[C@@H]3C)nc3nncn3c2n1C[C@@H]1CCCO1` (stereo partly drawn) [Example 56, 4-((2S,5R)-4-((2,5-Difluoro-4-(trifluoromethyl)phenyl)(3,3-difluorocyclobutyl)methyl)-2,5-dimethylpiperazin-1-yl)-2-methyl-1-(((S)-tetrahydrofuran-2-yl)methyl)-1H-[1,2,4]triazolo[3,4-b]purine] the IC50 (DGKα) was at most 0.02 µM and the IC50 (DGKζ) was at most 0.02 µM.
In the case of `Cc1nc2c(N3C[C@@H](C)N([C@H](c4ccc(Cl)c(Cl)c4)C4CC(F)(F)C4)C[C@@H]3C)nc3nncn3c2n1C[C@@H]1CCCO1` [Example 48, 4-((2S,5R)-4-((S)-(3,4-Dichlorophenyl)(3,3-difluorocyclobutyl)methyl)-2,5-dimethylpiperazin-1-yl)-2-methyl-1-(((S)-tetrahydrofuran-2-yl)methyl)-1H-[1,2,4]triazolo[3,4-b]purine], the IC50 (DGKα) is reported as at most 0.02 µM and the IC50 (DGKζ) is reported as at most 0.02 µM.
Molecule `COc1cccc([C@H](C(C)C)N2C[C@H](C)N(c3nc4nncn4c4c3nc(C)n4C[C@@H]3CCCO3)C[C@H]2C)c1` [Example 98, 4-((2S,5R)-4-((S)-1-(3-Methoxyphenyl)-2-methylpropyl)-2,5-dimethylpiperazin-1-yl)-2-methyl-1-(((S)-tetrahydrofuran-2-yl)methyl)-1H-[1,2,4]triazolo[3,4-b]purine] has an IC50 (DGKα) of at most 0.02 µM and an IC50 (DGKζ) of at most 0.02 µM.
`Cc1nc2c(N3C[C@@H](C)N([C@@H](c4ccc(Br)cc4)C(C)C)C[C@@H]3C)nc3nncn3c2n1C[C@@H]1CCCO1` [Example 139, 4-((2S,5R)-4-((R)-1-(4-bromophenyl)-2-methylpropyl)-2,5-dimethylpiperazin-1-yl)-2-methyl-1-(((S)-tetrahydrofuran-2-yl)methyl)-1H-[1,2,4]triazolo[3,4-b]purine] was tested, and the IC50 (DGKα) was at most 0.02 µM and the IC50 (DGKζ) was at most 0.02 µM.
`Cc1nc2c(N3C[C@@H](C)N(C(c4ccc(F)cc4)c4ccc(F)cc4)C[C@@H]3C)nc3nncn3c2n1C[C@@H]1CCCO1` [Example 19, 4-((2S,5R)-4-(Bis(4-fluorophenyl)methyl)-2,5-dimethylpiperazin-1-yl)-2-methyl-1-(((S)-tetrahydrofuran-2-yl)methyl)-1H-[1,2,4]triazolo[3,4-b]purine] showed an IC50 (DGKα) of at most 0.02 µM and an IC50 (DGKζ) of at most 0.02 µM.
